Measured values reported in PMC3915720 (Biochemistry, 2013).

Experiments:
Experiment in all cases: X-ray crystal structure, […] Å
Assay type in all cases: binding
WlaRD (C8J_1081) [1] = biological target: T1, WlaRD (C8J_1081) (Campylobacter jejuni, UniProt Q9ALS6)
WlaRD (C8J_1081) [2] = biological target: T1, WlaRD (C8J_1081); remark: listed apart in the source
WlaRD (C8J_1081) [3] = biological target: T1, WlaRD (C8J_1081); conditions: complex with N^5-formyl-THF

Nc1nc2c(c(=O)[nH]1)N(C=O)[C@@H](CNc1ccc(C(=O)N[C@@H](CCC(=O)O)C(=O)O)cc1)CN2 [N^5-formyl-THF]
X-ray crystal structure, 1.4 Å (cocrystal) (WlaRD (C8J_1081) [1]; complex with dTDP, not catalytically competent cofactor analog): that of the enzyme complexed with N^5-formyl-THF and dTDP

Nc1nc2c(c(=O)[nH]1)N[C@@H](CNc1ccc(C(=O)N[C@@H](CCC(=O)O)C(=O)O)cc1)CN2 [THF]
X-ray crystal structure, 1.9 Å (soak, turnover in crystal) (WlaRD (C8J_1081) [2]; complex with dTDP-Qui3N (subunit A) or dTDP-Qui3NFo (subunit B)): In subunit A, THF and dTDP-Qui3N were observed

Cc1cn([C@H]2C[C@H](O)[C@@H](COP(=O)(O)OP(=O)(O)O[C@H]3O[C@H](C)[C@H](O)[C@H](NC=O)[C@H]3O)O2)c(=O)[nH]c1=O [dTDP-Fuc3NFo]
X-ray crystal structure, 1.45 Å (cocrystal) (WlaRD (C8J_1081) [3]): to form such a complex in the presence of dTDP-Fuc3NFo as shown

Cc1cn([C@H]2C[C@H](O)[C@@H](COP(=O)(O)OP(=O)(O)O[C@H]3O[C@H](C)[C@@H](O)[C@H](NC=O)[C@H]3O)O2)c(=O)[nH]c1=O [dTDP-Qui3NFo]
X-ray crystal structure, 1.9 Å (soak, turnover in crystal) (WlaRD (C8J_1081) [2]; complex with THF, subunit B): In subunit B, however, the products THF and dTDP-Qui3NFo were present

Cc1cn([C@H]2C[C@H](O)[C@@H](COP(=O)(O)OP(=O)(O)O)O2)c(=O)[nH]c1=O [dTDP]
X-ray crystal structure, 1.4 Å (cocrystal) (WlaRD (C8J_1081) [1]; complex with N^5-formyl-THF, also with N^10-formyl-THF): that of the enzyme complexed with N^5-formyl-THF and dTDP
